Data on one molecule can be found in US20110021505A1, “Use of sulfonyl-substituted 2-sulfonylaminobenzoic acid N-phenylamides in the treatment of pain” (SANOFI-AVENTIS DEUTSCHLAND GMBH, priority 2007, published 2011).

The subject of the test is thermal hyperalgesia of the hind paws induced by injection of carrageenan. In words: Anti-hyperalgesic effect in the carrageenan model of inflammatory triggered thermal hyperalgesia in mice after oral administration. The test is classed as in vivo, male C57B6 mice. Also on record: key to Statistical evaluation vs. control (AUC1 h-6 h of PWL): ns: not significant; ***: significant, p < 0.0001 (ANOVA & Dunnett). The following applies: for Mean PWL (paw withdrawal latency) ± SEM: N=6 paws; for Statistical evaluation vs. control (AUC1 h-6 h of PWL): 1-way ANOVA & Dunnett; for AUC1 h-6 h of PWL (mean ± SEM): 1 h to 6 h after carrageenan, N=6. Here is the method:
In this in vivo model the anti-hyperalgesic effect was determined in mice in which a thermal hyperalgesia of the hind paws had been induced by injection of carrageenan, by measuring the paw withdrawal latency (PWL), i.e. the time until the mouse withdrew its hind paw from a heated spot of the ground. These experiments and all other animal experiments were performed in accordance with animal protection law and guidelines for the use of experimental animals.
Three test groups and one control group of animals were used each consisting of three male C57B6 mice. 1 h before injection of carrageenan, either the test compound or vehicle was administered to the animals orally by gavage. In the test groups, mice received 100 μl/10 g body weight of a suspension of the test compound in vehicle MC/T80 comprising 0.1 mg/ml, 0.3 mg/ml or 1 mg/ml (prepared as described in pharmaceutical example A) for attaining a dosage of 1 mg/kg body weight, 3 mg/kg body weight and 10 mg/kg body weight, respectively. In the control group, mice analogously received 100 μl/10 g body weight of vehicle MC/T80. For induction of hind paw inflammatory pain, then in all groups carrageenan (Sigma, Deisenhofen, Germany) at a concentration of 2% in 10 μl of saline was injected into the plantar aspect of both hind paws of the mice under slight general isofluran anesthesia. 1 h before injection of carrageenan, i.e. immediately before administration of the test compound or vehicle, and 1 h, 2 h, 4 h and 6 h after injection of carrageenan, thermal hyperalgesia was determined.
Thermal hyperalgesia was determined by measuring the paw withdrawal latency (PWL) by means of the automatic plantar test, first described for rats in K. Hargreaves et al., Pain 32 (1988), 77-88, and used in an adapted version fitted to mice described in H. Gühring et al., J. Neurosci. 20 (2000), 6714-6720. To restrict animal movement, 10.5×13.0×4.5 cm test cages were used. Instead of a glass floor, a metal grid bottom was used. PWL (in seconds) was determined on exposure of the paw to a defined thermal stimulus using a commercially available apparatus (Plantar Test, Ugo Basile Biological Research Apparatus, Comerio, Italy) fitted with a mini camera to ensure proper placement of the infrared heat below the hind paw of interest. The timer which measured the duration of reflected infrared light by the hind paw was started by the investigator and stopped once the animal shook the affected paw. A cut-off was set at 16 seconds to prevent tissue damage. For each hind paw and each time point, the mean of three to four PWL measurements was determined.
The given PWL values (in seconds) are the mean±SEM (standard error of the mean) of the PWL values obtained for each hind paw of each animal (N (number of paws)=6) of the indicated dosage group at the time points 1 h, 2 h, 4 h and 6 h after injection of carrageenan, as well as the baseline PWL values (BL) determined 1 h before administration of the test compound or vehicle and injection of carrageenan.
For the statistical analysis, PWL values were used in two ways, first with a 2-way ANOVA test based on the PWL values and second with a 1-way ANOVA test based on the area under the curve (AUC) values for the time period of 6 h after injection of carrageenan. A repeated measures 2-way ANOVA test (factor treatment and repeated measures factor time) was performed on PWL measurements. In case the interaction (treatment×time) was statistically significant, a Winer complementary analysis was done to investigate the effect of treatment for each time point. A Dunnett's test was used to study the potential differences between the control group and the test groups. […]

With `O=C(Nc1ccc(S(=O)(=O)N2CCOCC2)cc1)c1cc(Cl)ccc1NS(=O)(=O)c1ccc(Cl)s1.[Na]` [Example 94, 5-Chloro-2-(5-chloro-thiophene-2-sulfonylamino)-N-(4-(morpholine-4-sulfonyl)-phenyl)-benzamide sodium salt], the “Mean PWL (paw withdrawal latency) ± SEM” value worked out at 11.08 ± 0.40 s (1 mg/kg body weight group, BL baseline before administration and carrageenan); 4.08 ± 0.62 s (1 mg/kg body weight oral, 1 h after carrageenan); 3.80 ± 0.28 s (1 mg/kg body weight oral, 2 h after carrageenan); 3.98 ± 0.79 s (1 mg/kg body weight oral, 4 h after carrageenan); 3.86 ± 0.48 s (1 mg/kg body weight oral, 6 h after carrageenan); 10.69 ± 0.27 s (3 mg/kg body weight group, BL baseline before administration and carrageenan). Moreover, the “Mean PWL (paw withdrawal latency) ± SEM” value by setting is: (3 mg/kg body weight oral, 1 h after carrageenan) 8.42 ± 0.53 s; (3 mg/kg body weight oral, 2 h after carrageenan) 10.16 ± 0.33 s; (3 mg/kg body weight oral, 4 h after carrageenan) 10.84 ± 0.63 s; (3 mg/kg body weight oral, 6 h after carrageenan) 3.74 ± 0.47 s; (10 mg/kg body weight group, BL baseline before administration and carrageenan) 10.97 ± 0.40 s; (10 mg/kg body weight oral, 1 h after carrageenan) 12.46 ± 0.91 s. In addition, the “Mean PWL (paw withdrawal latency) ± SEM” value is, setting by setting: (10 mg/kg body weight oral, 2 h after carrageenan) 11.24 ± 0.77 s; (10 mg/kg body weight oral, 4 h after carrageenan) 11.11 ± 0.54 s; (10 mg/kg body weight oral, 6 h after carrageenan) 3.40 ± 0.46 s. Besides, the “Statistical evaluation vs. control (AUC1 h-6 h of PWL)” value is, setting by setting: (1 mg/kg body weight oral) “ns”; (3 mg/kg body weight oral) “*** (significant, p < 0.0001 (ANOVA & Dunnett))”; (10 mg/kg body weight oral) “*** (significant, p < 0.0001 (ANOVA & Dunnett))”. In addition, the “AUC1 h-6 h of PWL (mean ± SEM)” value (1 mg/kg body weight oral) is 19.57 ± 2.19, the “AUC1 h-6 h of PWL (mean ± SEM)” value (3 mg/kg body weight oral) turned out to be 44.87 ± 1.21 and the “AUC1 h-6 h of PWL (mean ± SEM)” value (10 mg/kg body weight oral) was determined as 48.70 ± 2.06. Besides, the “Anti-hyperalgesic effect on PWL vs. control (2-way ANOVA, Dunnett)” value (3 mg/kg and 10 mg/kg body weight oral, from 1 h to 4 h after carrageenan injection) is “Statistically significant anti-hyperalgesic effects”.
